The values below come from patent US11193110B2, “Methods to generate gastrointestinal epithelial tissue constructs” (The University of North Carolina at Chapel Hill, priority 2015, dated 2021).

SMILES strings stand for the structures. “Also recorded” adds a separate entry of the source.

Data set [1] concerns primary intestinal epithelial cells. The data set can be described thus: screen of dietary compounds and natural products on primary intestinal epithelial cells on collagen hydrogel (Hoechst 33342, EDU, alkaline phosphatase, Muc2). Format: cell-based. To be noted: 48 h incubation at Table 1 concentration; for S-phase or proliferating cells (EDU) / number of nuclei / cell number (Hoechst 33342): relative to control cells cultured in ENR-W; for enterocyte phenotype (alkaline phosphatase expression): p=0.01 (#42), p=0.02 (#31), p=0.002 (#51); for growth suppression: both number of nuclei and S-phase cells significantly lower than control: p<0.01 versus control cells in ENR-W. An excerpt: FIG. 11. The impact of dietary compounds and natural products on primary colonic epithelium. The percentage of the collagen Daiszein (aglycone of daidzen) surface area occupied by cells (Hoechst 33342-positive) and the normalized EDU (A), alkaline phosphatase and mucin2-positive areas (B) were plotted against the compound number. The EDU, alkaline phosphatase and Muc2 areas were normalized to the total cell area. Alphabetic headings refer to categories described in Table 1.
Strategies to screen the vast number of dietary and metabolite compounds for their impact on proliferation, differentiation and other cell behaviors in the intestine have become increasingly important. However, major challenges exist due to a lack of technologies capable of faithfully duplicating the actions of these compounds on normal, healthy colonic cells. […] These attributes are central to intestinal barrier function and repair in the face of repeated chemical, physical, immune and infectious insults. Additionally controlled proliferation and terminal differentiation are key to avoiding an oncogenic state. Metabolites or natural products minimizing intestinal-cell proliferation without cell death, enhancing cell proliferation, or directing cells into the differentiated lineages are of profound interest for health maintenance and as therapeutics. The compounds represented a range of chemical classes with diverse or unknown impact on primary intestinal cells including fatty acids, bile acids, flavenoids, phytoestrogens, phenols, terpenoids, nitrates, and others. 75,000 cells were cultured on the collagen hydrogel with ENR-W (but with 10 ng/mL Wnt-3A) for 24 h to enable cells to attach to the surface, followed by incubation with the dietary/natural compounds for 48 h. The cells were then analyzed sequentially for four attributes: nuclei (Hoechst 33342), S-phase or proliferating cells (EDU), enterocyte phenotype (high alkaline phosphatase), and goblet cell marker (Muc2) (FIGS. 11A-B). […] In particular, glucosinolates (#68, #69, #70), responsible for the bitterness of cabbage and brussel sprouts, are toxic when consumed at high concentrations and this may in part be due to their direct effects on intestinal cells. […] These included the most of the phenols assayed such as gallic acid (#28), ellagic acid (#29), and punicalagin (#31) but also compounds such as valproate (#6) and […]-carotene (#58) all of which are recognized in the literature as inducing cell differentiation. […] Molecules promoting enterocyte formation may exert some of their beneficial effects by enhancing intestinal barrier and/or absorptive function and thus may be worthy of additional investigation. […] Matairesinol increases COX-2-derived prostaglandin E2 in Caco-2 cells and prostaglandin E2 has been characterized as inducing Goblet cell formation in the colon to increase mucous secretion. Screening primary colon epithelium directly links the matairesinol to increased mucous production and this may be through a prostaglandin E pathway.

The test system of data set [2] is Caco-2 cells. To be noted: cited from earlier work.
In data set [3] the test system is CYP1A1. The data set can be described thus: ethoxyresorufin O-deethylase (EROD) assay of CYP1A1 induction in the 2D colonic epithelial monolayer. The class given is cell-based, mouse. To be noted: 0.1 μM TCDD. How it is done: FIG. 7. […] Top panel, day 0. Bottom panel, day 5. White dotted line indicates the perimeter of the insert. (B) SEM images of 2D monolayer. […] (C) Basal EROD activity and inducibility in 2D monolayer cells. 2D monolayer was cultured under ENR-WB for 5 days. […] CYP1A1 enzyme activity was determined using the ethoxyresorufin O-deethylase (EROD) assay, n=3.
Intestine is a vital organ that has many important functions (such as absorption, secretion, etc.). One function is metabolism through cytochrome P450 (CYP) enzyme activity that provides the principal, initial source of biotransformation/detoxification of ingested xenobiotics (Kaminsky, L. S. et al., Critical Reviews in Toxicology 21, 407-422 (1992)). Among the CYPs, CYP1A1 plays a physiological role in the degradation of estradiol into 2-OH-estradiol (Paine, M. F. et al., Drug Metabolism and Disposition 27, 360-364 (1999)). In vivo, CYP1A1 in rat intestines can be induced by feeding the rats with polycyclic aromatic hydrocarbons (PAHs) (Martignoni, M. et al., Chemico-Biological Interactions 151, 1-11 (2004)). […] The CYP1A1 enzyme activity was determined using an ethoxyresorufin O-deethylase (EROD) assay (Jones, S. P. et al., Ecotoxicology 23, 802-808 (2014)).

On to `O=C1O[C@H]2[C@@H]3OC(=O)c4cc(O)c(O)c(O)c4-c4c(O)c(O)c5oc(=O)c6c(c(O)c(O)c7oc(=O)c4c5c76)-c4c(cc(O)c(O)c4O)C(=O)OC[C@H]3OC(O)[C@@H]2OC(=O)c2cc(O)c(O)c(O)c2-c2c1cc(O)c(O)c2O` (mixture of isomers) [#31, Punicalagin], for which, in data set [1], the “S-phase or proliferating cells (EDU)” value is recorded as “suppressed proliferation” and the “number of nuclei / cell number (Hoechst 33342)” value (“number of nuclei / cell number” below) is listed as “did not greatly diminish cell number; also recorded: without cell number reduction”. For the same molecule, in data set [1] (relative to control), the “enterocyte phenotype (alkaline phosphatase expression)” value (shortened to “enterocyte phenotype”) is listed as “directed cells towards the enterocyte lineage”.

For the molecule `COc1cc(-c2oc3cc(O)cc(O)c3c(=O)c2O)ccc1O` [#21, Isorhamnetin], the “S-phase or proliferating cells (EDU)” value in data set [1] is recorded as “increased cell numbers in S-phase”.

`O=C(O)c1cc(O)c(O)c(O)c1` [#28, Gallic Acid]: in data set [1], the “S-phase or proliferating cells (EDU)” value was “suppressed proliferation” and the “number of nuclei / cell number” value is “did not greatly diminish cell number”.

In the case of `O=c1oc2c(O)c(O)cc3c(=O)oc4c(O)c(O)cc1c4c23` [#29, Ellagic Acid], in data set [1], the “S-phase or proliferating cells (EDU)” value is given as “suppressed proliferation” and the “number of nuclei / cell number” value is listed as “did not greatly diminish cell number”.

Regarding `CN[C@@H]1C[C@H]2O[C@@](C)([C@@H]1OC)n1c3ccccc3c3c4c(c5c6ccccc6n2c5c31)C(=O)NC4` [#32, Aglycones (Staurosporine), reference compound], in data set [1], the “S-phase or proliferating cells (EDU)” value was “decreased” and the “number of nuclei / cell number” value is reported as “significantly increased”.

`CC12CCC(CC1)C(C)(C)O2` [#42, Eucalyptol]: the “S-phase or proliferating cells (EDU)” value in data set [1] is on record as “minimized cell proliferation”. The “enterocyte phenotype” value in data set [1] (relative to control) was “increasing alkaline phosphatase expression”.

As to `C/C(=C\CO)CCC[C@H](C)CCC[C@H](C)CCCC(C)C` [#51, Phytol], in data set [1], the “number of nuclei / cell number” value is “without cell number reduction”. Further, in data set [1] (relative to control), the “enterocyte phenotype” value is “directed cells towards the enterocyte lineage”.

For `CC1=C(/C=C/C(C)=C/C=C/C(C)=C/C=C/C=C(C)/C=C/C=C(C)/C=C/C2=C(C)CCCC2(C)C)C(C)(C)CCC1` [#58, β-carotene], in data set [1], the “S-phase or proliferating cells (EDU)” value was “suppressed proliferation” and the “number of nuclei / cell number” value was “did not greatly diminish cell number”.

For `S=C=NCc1ccccc1` [#68, Glucotropaeolin isothiocyanate], in data set [1], the “growth suppression: both number of nuclei and S-phase cells significantly lower than control” value is “growth suppressive”.

On to `O=S(=O)(O)ON=C(CCc1ccccc1)S[C@@H]1O[C@H](CO)[C@@H](O)[C@H](O)[C@H]1O` [#69, Gluconasturtiin], for which the “growth suppression: both number of nuclei and S-phase cells significantly lower than control” value in data set [1] is reported as “growth suppressive”.

`C[S+]([O-])CCCC/C(=N\OS(=O)(=O)O)S[C@@H]1O[C@H](CO)[C@@H](O)[C@H](O)[C@H]1O` (some centres unmarked) [#70, Glucoraphanin]: in data set [1], the “growth suppression: both number of nuclei and S-phase cells significantly lower than control” value is recorded as “growth suppressive”.

For `COc1cc(C[C@H]2COC(=O)[C@@H]2Cc2ccc(O)c(OC)c2)ccc1O` [#77, Matairesinol], in data set [2], the “COX-2-derived prostaglandin E2” value is “increases”. The “goblet cell marker Muc2 or mucin expression” value in data set [1] (relative to control, p<0.01) was “significantly increased”.

With `Clc1cc2c(cc1Cl)Oc1cc(Cl)c(Cl)cc1O2` [TCDD, 2,3,7,8-tetrachlorodibenzo-p-dioxin], in data set [3] (2D monolayer cultured under ENR-WB 5 days, treated 20 hours, EROD assay), the “CYP1A1 activity increased compared with the cells treated with toluene vehicle” value turned out to be 40 fold. The “CYP1A1 enzyme activity induction by PAHs” value in data set [3] (2D monolayer treated 20 hours, 10 μM βNF, 1 μM BaP, toluene vehicle) was “effectively demonstrated”.
